Measurements: the supplement of paper PMC11061612

Assays:
Assay in all cases: Bliss excess, mean over the matrix (fraction); higher = more synergy
[1] = system: BL-41 (Burkitt's Lymphoma)
Summary of the method: (§1)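 Cell lines in DMEM/F12 or RPMI with 10% FBS were plated in 1536-well plates, held 24 hours at 37°C, 5% CO2, then given two-drug dose matrices for 72 hours (DMSO typically 0.2%). Viability was read by CellTiter-Glo 2.0 luminescence and scaled as inhibition from 0 (vehicle wells) to 1 (blank wells). Combination Emax is the second-highest inhibition in the matrix; Bliss excess is observed combination effect minus expected EA + EB − EA·EB, EA and EB being single-agent effects.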

[2] = system: COLO-678 (Colorectal Carcinoma)
Summary of the method: as §1

[3] = system: DiFi (Colorectal Carcinoma)
Summary of the method: as §1

ES8 (Ewing's Sarcoma) = system: ES8 (Ewing's Sarcoma)
Summary of the method: as §1

[4] = system: EVSA-T (Breast Carcinoma)
Summary of the method: as §1

[5] = system: GR-ST (B-Lymphoblastic Leukemia)
Summary of the method: as §1

[6] = system: HL-60 (Acute Myeloid Leukemia)
Summary of the method: as §1

[7] = system: KARPAS-45 (T-Lymphoblastic Leukemia)
Summary of the method: as §1

[8] = system: KCL-22 (Chronic Myelogenous Leukemia)
Summary of the method: as §1

LN-18 (Glioblastoma) = system: LN-18 (Glioblastoma)
Summary of the method: as §1

MEL-JUSO (Melanoma) = system: MEL-JUSO (Melanoma)
Summary of the method: as §1

[9] = system: MOLT-16 (T-Lymphoblastic Leukemia)
Summary of the method: as §1

[10] = system: MS751 (Cervical Carcinoma)
Summary of the method: as §1

NCI-H2818 (Mesothelioma) = system: NCI-H2818 (Mesothelioma)
Summary of the method: as §1

[11] = system: P12-ICHIKAWA (T-Lymphoblastic Leukemia)
Summary of the method: as §1

[12] = system: SR (Other Blood Carcinomas)
Summary of the method: as §1

[13] = system: SW1417 (Colorectal Carcinoma)
Summary of the method: as §1

[14] = system: SW837 (Colorectal Carcinoma)
Summary of the method: as §1

[15] = system: TOV-112D (Ovarian Carcinoma)
Summary of the method: as §1

WM-115 (Melanoma) = system: WM-115 (Melanoma)
Summary of the method: as §1

Row | Compound | Bliss excess [1] | Bliss excess [2] | Bliss excess [3] | Bliss excess (ES8 (Ewing's Sarcoma)) | Bliss excess [4] | Bliss excess [5] | Bliss excess [6] | Bliss excess [7] | Bliss excess [8] | Bliss excess (LN-18 (Glioblastoma)) | Bliss excess (MEL-JUSO (Melanoma)) | Bliss excess [9] | Bliss excess [10] | Bliss excess (NCI-H2818 (Mesothelioma)) | Bliss excess [11] | Bliss excess [12] | Bliss excess [13] | Bliss excess [14] | Bliss excess [15] | Bliss excess (WM-115 (Melanoma))
1 | NC1(C(=O)N[C@@H](CCO)c2ccc(Cl)cc2)CCN(c2ncnc3[nH]ccc23)CC1 [Capivasertib] + C[C@@H]1COCCN1C2=NC(=NC(=C2)C3(CC3)[S@](=N)(=O)C)C4=C5C=CNC5=NC=C4 [AZD6738] (first compound max 10 µM, 7x7, partner max 10 µM) | -0.0552 | -0.051 | -0.122 | 0.0038 | 0.0185 | -0.035 | -0.04 | -0.0238 | 0.0044 | -0.0463 | 0.0083 | -0.0161 | -0.0156 | -0.0315 | 0.0043 | 0.016 | -0.0282 | -0.0862 | -0.0632 | -0.0502
2 | NC1(C(=O)N[C@@H](CCO)c2ccc(Cl)cc2)CCN(c2ncnc3[nH]ccc23)CC1 [Capivasertib] + Cn1cnc2c(F)c(Nc3ccc(Br)cc3Cl)c(C(=O)NOCCO)cc21 [Selumetinib] (first compound max 10 µM, 7x7, partner max 10 µM) | 0.0106 | -0.0398 | 0.0049 | -0.0548 | -0.0157 | -0.0428 | 0.021 | 0.0796 | 0.117 | 0.0373 | 0.0315 | 0.0683 | 0.0024 | -0.0014 | 0.15 | 0.0682 | 0.0152 | -0.0357 | 0.0272 | 0.071
3 | Cc1nc(Nc2ncc(C(=O)Nc3c(C)cccc3Cl)s2)cc(N2CCN(CCO)CC2)n1 [Dasatinib] + CC(=O)Nc1cccc(-n2c(=O)n(C3CC3)c(=O)c3c(Nc4ccc(I)cc4F)n(C)c(=O)c(C)c32)c1 [Trametinib] (first compound max 2 µM, 7x7, partner max 1 µM) | 0.0075 | -0.0945 | -0.0465 | 0.0243 | -0.0361 | 0.0189 | -0.159 | 0.0017 | -0.0501 | -0.0433 | -0.0878 | -0.0184 | -0.0099 | -0.0109 | 0.0326 | -0.0069 | 0.131 | 0.0448 | 0.0773 | 0.118
4 | COc1cc2ncnc(Nc3ccc(F)c(Cl)c3)c2cc1OCCCN1CCOCC1 [Gefitinib] + CC(C)n1c(=O)n(C)c2cnc3cc(F)c(-c4ccc(OCCCN5CCCCC5)nc4)cc3c21 [AZD1390] (first compound max 10 µM, 7x7, partner max 0.3 µM) | 0.003 | -0.111 | -0.0882 | -0.0364 | -0.0306 | -0.0303 | -0.0852 | -0.0543 | -0.0573 | -0.033 | -0.0857 | -0.0401 | -0.0614 | -0.0707 | -0.0152 | -0.0109 | -0.0456 | -0.06 | -0.0392 | -0.0856
5 | CS(=O)(=O)CCNCc1ccc(-c2ccc3ncnc(Nc4ccc(OCc5cccc(F)c5)c(Cl)c4)c3c2)o1 [Lapatinib] + C[C@@H](Oc1cc(-c2cnn(C3CCNCC3)c2)cnc1N)c1c(Cl)ccc(F)c1Cl [Crizotinib] (first compound max 10 µM, 7x7, partner max 10 µM) | -0.0236 | -0.0488 | 0.0187 | -0.0424 | -0.0359 | -0.025 | 0.019 | 0.0044 | 0.0178 | -0.0342 | -0.034 | 0.0062 | 0.0207 | -0.0019 | -0.0077 | 0.019 | -0.0165 | -0.0345 | 0.0028 | -0.0237
6 | CC(=O)c1c(C)c2cnc(Nc3ccc(N4CCNCC4)cn3)nc2n(C2CCCC2)c1=O [Palbociclib] + CC1(C)CCC(CN2CCN(c3ccc(C(=O)NS(=O)(=O)c4ccc(NCC5CCOCC5)c([N+](=O)[O-])c4)c(Oc4cnc5[nH]ccc5c4)c3)CC2)=C(c2ccc(Cl)cc2)C1 [Venetoclax] (first compound max 10 µM, 7x7, partner max 1 µM) | -0.0842 | 0.0158 | 0.0239 | 0.0365 | 0.0048 | 0.0074 | -0.0215 | 0.0598 | 0.0057 | 0.0187 | -0.0309 | 0.0452 | -0.0251 | -0.0146 | -0.0157 | -0.0245 | -0.0267 | -0.0671 | 0.0283 | -0.0708
7 | CC(=O)c1c(C)c2cnc(Nc3ccc(N4CCNCC4)cn3)nc2n(C2CCCC2)c1=O [Palbociclib] + Cc1c2c(nn1C)CSCc1cc(n(C)n1)CSc1cc(c3ccccc3c1)OCCCc1c(C(=O)O)n(C)c3c-2c(Cl)ccc13 [AZD5991] (first compound max 10 µM, 7x7, partner max 1 µM) | -0.0691 | -0.0814 | -0.0139 | 0.0838 | -0.117 | 0.0096 | -0.0214 | -0.0071 | 0.0403 | -0.0153 | -0.103 | -0.0427 | -0.0294 | -0.0386 | -0.0467 | 0.0286 | -0.0089 | -0.0582 | 0.0428 | -0.0282
8 | CC(=O)c1c(C)c2cnc(Nc3ccc(N4CCNCC4)cn3)nc2n(C2CCCC2)c1=O [Palbociclib] + Cn1cnc2c(F)c(Nc3ccc(Br)cc3Cl)c(C(=O)NOCCO)cc21 [Selumetinib] (first compound max 10 µM, 7x7, partner max 10 µM) | -0.0131 | -0.071 | 0.0274 | 0.041 | -0.0035 | 0.0333 | 0.0109 | 0.0636 | -0.0021 | 0.0293 | 0.0028 | -0.0133 | -0.0445 | -0.0013 | 0.138 | 0.0352 | -0.0094 | 0.0075 | 0.068 | -0.0126
9 | COc1cccc(OCCCN)c1-c1cc(Nc2cnc(C#N)cn2)n[nH]1 [Prexasertib] + CCc1c2c(nc3ccc(O)cc13)-c1cc3c(c(=O)n1C2)COC(=O)[C@]3(O)CC [SN-38] (first compound max 1 µM, 7x7, partner max 0.3 µM) | -0.0231 | -0.0355 | -0.0153 | -0.0301 | 0.224 | -0.106 | -0.0203 | 0.0731 | 0.0175 | 0.07 | -0.0378 | 0.0103 | 0.0628 | -0.0745 | -0.0253 | -0.0378 | 0.0029 | 0.0546 | 0.0183 | -0.0492
10 | C[C@@H](c1ccc2nccn2c1)n1nnc2ncc(-c3cnn(C)c3)nc21 [Savolitinib] + CC1(C)CCC(CN2CCN(c3ccc(C(=O)NS(=O)(=O)c4ccc(NCC5CCOCC5)c([N+](=O)[O-])c4)c(Oc4cnc5[nH]ccc5c4)c3)CC2)=C(c2ccc(Cl)cc2)C1 [Venetoclax] (first compound max 1 µM, 7x7, partner max 1 µM) | -0.0365 | -0.112 | -0.0468 | 0.0191 | -0.0269 | -0.0073 | -0.0202 | -0.017 | -0.0352 | -0.0265 | -0.0919 | -0.0788 | -0.028 | -0.0411 | -0.0414 | 0.0747 | -0.0509 | -0.0813 | -0.0489 | -0.0346
11 | C[C@@H](c1ccc2nccn2c1)n1nnc2ncc(-c3cnn(C)c3)nc21 [Savolitinib] + Cc1c2c(nn1C)CSCc1cc(n(C)n1)CSc1cc(c3ccccc3c1)OCCCc1c(C(=O)O)n(C)c3c-2c(Cl)ccc13 [AZD5991] (first compound max 1 µM, 7x7, partner max 1 µM) | -0.0318 | -0.0899 | -0.0321 | 0.0495 | -0.0233 | -0.037 | -0.0266 | -0.0264 | -0.0134 | 0.005 | -0.0269 | -0.0289 | -0.0701 | -0.0343 | 0.02 | 0.0023 | -0.0228 | -0.0644 | -0.0242 | -0.037
12 | Cn1cnc2c(F)c(Nc3ccc(Br)cc3Cl)c(C(=O)NOCCO)cc21 [Selumetinib] + C=CCn1c(=O)c2cnc(Nc3ccc(N4CCN(C)CC4)cc3)nc2n1-c1cccc(C(C)(C)O)n1 [AZD1775] (first compound max 10 µM, partner max 1 µM) | -0.0162 | 0.0011 | 0.0233 | -0.185 | -0.015 | -0.0368 | -0.0732 | 0.0001 | 0.0242 | -0.0103 | -0.0388 | 0.0252 | 0.0171 | -0.0498 | 0.0595 | -0.0132 | 0.0387 | -0.0207 | -0.0497 | -0.0731
13 | Cn1cnc2c(F)c(Nc3ccc(Br)cc3Cl)c(C(=O)NOCCO)cc21 [Selumetinib] + CC(C)n1c(=O)n(C)c2cnc3cc(F)c(-c4ccc(OCCCN5CCCCC5)nc4)cc3c21 [AZD1390] (first compound max 10 µM, 7x7, partner max 0.3 µM) | 0.0029 | -0.0409 | 0.0004 | -0.0529 | -0.0185 | -0.0084 | -0.073 | -0.026 | 0.0847 | -0.0148 | -0.0291 | 0.0182 | -0.0171 | -0.0237 | 0.0544 | -0.0171 | -0.0094 | -0.0343 | -0.0262 | -0.0442
14 | Cn1cnc2c(F)c(Nc3ccc(Br)cc3Cl)c(C(=O)NOCCO)cc21 [Selumetinib] + CCN(CCO)CCCOc1ccc2c(Nc3cc(CC(=O)Nc4cccc(F)c4)[nH]n3)ncnc2c1 [AZD2811] (first compound max 10 µM, 7x7, partner max 1 µM) | 0.0338 | -0.0223 | 0.0371 | -0.0089 | 0.0097 | 0.0702 | 0.0017 | -0.0434 | 0.0941 | -0.0192 | -0.0206 | -0.0271 | 0.055 | -0.0106 | 0.0216 | 0.0128 | 0.058 | -0.0311 | -0.01 | -0.042
15 | Cn1cnc2c(F)c(Nc3ccc(Br)cc3Cl)c(C(=O)NOCCO)cc21 [Selumetinib] + C[C@@H]1COCCN1C2=NC(=NC(=C2)C3(CC3)[S@](=N)(=O)C)C4=C5C=CNC5=NC=C4 [AZD6738] (first compound max 10 µM, 7x7, partner max 10 µM) | -0.0299 | 0.132 | 0.0092 | -0.069 | -0.0377 | -0.0301 | -0.039 | 0.0047 | -0.0129 | -0.0318 | 0.0935 | 0.0063 | 0.0516 | -0.0144 | 0.0286 | -0.0169 | 0.0363 | -0.095 | -0.0377 | 0.0116
